Legend:
Apis mellifera = details: acute; duration: 48 hours; oral; unspecified; mortality
Mus musculus = details: chronic; duration: 18 months; histopathology: nonneoplastic
Oncorhynchus mykiss = details: chronic/long-term; duration: 28 days; growth
Lepomis macrochirus = details: acute; duration: 96 hours; mortality
Bibionidae = details: chronic/long-term; duration: 28 days
Anas platyrhynchos = details: oral, mortality
Tagia sp. = details: acute; duration: 14 days; mortality
Colinus virginianus = details: acute, oral, mortality
Daphnia magna = details: chronic/long-term; duration: 21 days
Aphidius rhopalosiphi = experiment: LR50; higher = less toxic; details: not reported; mortality

`O=C(NC(=O)c1c(F)cccc1F)Nc1cc(Cl)c(F)c(Cl)c1F` [Teflubenzuron] showed an LD50 (Apis mellifera) greater than 72 µg/piece, an LOAEL (Mus musculus) of 2.1 mg/kg-day and an NOEC (Oncorhynchus mykiss) of 0.0186 mg/L. The LD50 (Rattus norvegicus; acute, oral, mortality) was greater than 5000 mg/kg-day, the NOAEL (Rattus norvegicus; chronic) was 40 mg/kg-day and the NOAEL (Rattus norvegicus; subchronic, duration: 90 days, oral, clinical chemistry) was 8 mg/kg-day. The LC50 (Lepomis macrochirus) was greater than 6.5 ng/mL, the NOEC (Bibionidae) was 0.05 mg/kg and the LD50 (Anas platyrhynchos; acute, unspecified) was greater than 2000 mg/kg-day. The LD50 (Anas platyrhynchos; short-term, feed) was greater than 1210 mg/kg-day, the LC50 (Tagia sp.) was greater than 1000 mg/kg and the LD50 (Colinus virginianus; diet) was greater than 1010 mg/kg-day. For the same molecule, the LD50 (Colinus virginianus) was greater than 2250 mg/kg-day, the NOEC (Daphnia magna) was 6.2e-05 mg/L and the LR50 (Aphidius rhopalosiphi) was greater than 180 g/ha.

From EPA's ToxValDB 9.5 (doi:10.2903/j.efsa.2009.184r)
